# Test results: patent US20100179173A1, “SUBSTITUTED FUSED PYRIMIDINES AS ANTAGONISTS OF GPR105 ACTIVITY” (priority 2007, published 2010)
# Target: T1, chimpanzee GPR105 protein (Pan troglodytes, UniProt A0A2J8P2M1)
# T1 construct: expressed in transfected cells
# T1 sequence (A0A2J8P2M1 1-338): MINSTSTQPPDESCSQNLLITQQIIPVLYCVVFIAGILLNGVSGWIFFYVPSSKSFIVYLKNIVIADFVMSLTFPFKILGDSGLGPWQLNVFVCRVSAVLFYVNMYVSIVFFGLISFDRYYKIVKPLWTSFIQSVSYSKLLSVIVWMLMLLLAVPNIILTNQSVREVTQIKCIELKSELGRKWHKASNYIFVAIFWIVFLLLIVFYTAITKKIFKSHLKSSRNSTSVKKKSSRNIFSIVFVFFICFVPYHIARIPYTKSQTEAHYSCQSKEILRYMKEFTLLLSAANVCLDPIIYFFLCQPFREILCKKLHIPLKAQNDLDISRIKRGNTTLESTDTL
# Assay: Cell-Binding Assay: inhibition of UDP-glucose-induced Ca2+ signaling (FLIPR) in HEK/GPR105/Gqi5 cells
# Format: cell-based
# Conditions: HEK cells expressing chimpanzee GPR105 and Gqi5, UDP-glucose agonist at EC80
# Description: A stable HEK clonal cell line expressing the chimpanzee GPR105 protein and the chimeric G protein Gqi5 was developed. The chimeric Gqi5 forces the coupling of GPR105 through the Gq (calcium) pathway and allows for monitoring of calcium signaling using a calcium binding fluorescent dye and the FLIPR (fluorometric imaging plate reader, MDS Sciex). […] Cells were incubated overnight at 37° C. and 5% CO2 to form a monolayer. On the following day, 30 μL of fluorescent no-wash dye was added to the cell monolayer and the plate was incubated for 60 min at 37° C., 5% CO2. […] of compound in 100% DMSO was added to cell/dye incubation using acoustic dispensing (Echo™, Labcyte). Following a 20 minute incubation of compound at room temperature, 6.25 μL of UDP-glucose agonist (at EC80) in Hank's Balanced Salt Solution (HBSS) containing 20 mM Hepes was added to cells and Ca^2+ signaling was monitored by FLIPR. Quantitation of the % inhibition of Ca^2+ signaling by antagonist was calculated using the maximum fluorescent signal detected. IC50's for the compounds of structural formula (I) were calculated as follows: […]
row,IC50,SMILES
1,55.7 nM,CCc1cncc(NC(=O)N2CCc3nc(-c4cccnc4)nc(-c4ccccc4C)c3C2)c1
2,8.1 nM,CCc1cc(NC(=O)N2CCc3nc(-c4cccnc4)nc(-c4ccccc4C)c3C2)cc(Oc2ccccc2)c1
3,7.8 nM,CCc1cccc(NC(=O)N2CCc3nc(-c4ccc(C#N)nc4)nc(-c4ccccc4C)c3C2)c1
4,10.5 nM,CCc1cc(Cl)cc(NC(=O)N2CCc3nc(-c4cncnc4)nc(-c4ccccc4C)c3C2)c1
5,4 nM,CCc1cc(NC(=O)N2CCc3nc(-c4cccnc4)nc(-c4ccccc4C)c3C2)cc(-c2ccc(C(=O)O)cc2)c1
6,12 nM,CCc1cccc(NC(=O)N2CCc3nc(-c4ccnc(F)c4)nc(-c4ccccc4C)c3C2)c1
7,65.1 nM,CCc1cccc(NC(=O)N2CCc3nc(-c4cscc4C)nc(-c4ccccc4C)c3C2)c1
8,5.6 nM,CCc1cc(NC(=O)N2CCc3nc(-c4cccnc4)nc(-c4ccccc4C)c3C2)cc(-c2cn(C)cn2)c1
9,34.5 nM,CCc1cccc(NC(=O)N2CCc3nc(-c4ccnn4C)nc(-c4ccccc4C)c3C2)c1
10,18.4 nM,Cc1ccccc1-c1nc(-c2cccnc2)nc2c1CN(C(=O)Nc1cccc(-c3ccc(C(N)=O)cc3)c1)CC2
